Laboratory results published in patent US20180099931A1 (AbbVie S.à.r.l., priority 2016, published 2018).
Like-named read-outs stand apart in the source and are kept apart here.

Target: T1, F508delCFTR (Homo sapiens, UniProt P13569, DEL508-508)
T1 construct: expressed in transfected cells; host or cells: CFBE41o- human lung-derived epithelial cells (CFBE4lo-F508delCFTR-HRP), doxycycline-inducible
Test: Cell Surface Expression-Horse Radish Peroxidase (CSE-HRP) Assay;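 as to Maximum % activity (with co-corrector): co-corrector and positive control are both the same reference corrector at 2 µM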;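 as to Maximum % activity (without co-corrector): percent of the 2 µM on-plate positive control corrector response above DMSO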
Type: cell-based
Details: for Maximum % activity (with co-corrector): with co-corrector (2 μM); for Emax: read-out: Maximum % activity (without co-corrector)

[1] = test compound without co-corrector, read-out: EC50 (without co-corrector)
[2] = with co-corrector (2 μM of 3-[(2R,4R)-4-({[1-(2,2-difluoro-1,3-benzodioxol-5-yl)cyclopropyl]carbonyl}amino)-7-methoxy-3,4-dihydro-2H-chromen-2-yl]benzoic acid), read-out: EC50 (with co-corrector)
[3] = maximum at any tested concentration, normalized to on-plate positive control
[4] = without co-corrector, maximum at any tested concentration, normalized to on-plate positive control

T1 sequence (P13569 with tags, fused parts or gaps DEL508-508): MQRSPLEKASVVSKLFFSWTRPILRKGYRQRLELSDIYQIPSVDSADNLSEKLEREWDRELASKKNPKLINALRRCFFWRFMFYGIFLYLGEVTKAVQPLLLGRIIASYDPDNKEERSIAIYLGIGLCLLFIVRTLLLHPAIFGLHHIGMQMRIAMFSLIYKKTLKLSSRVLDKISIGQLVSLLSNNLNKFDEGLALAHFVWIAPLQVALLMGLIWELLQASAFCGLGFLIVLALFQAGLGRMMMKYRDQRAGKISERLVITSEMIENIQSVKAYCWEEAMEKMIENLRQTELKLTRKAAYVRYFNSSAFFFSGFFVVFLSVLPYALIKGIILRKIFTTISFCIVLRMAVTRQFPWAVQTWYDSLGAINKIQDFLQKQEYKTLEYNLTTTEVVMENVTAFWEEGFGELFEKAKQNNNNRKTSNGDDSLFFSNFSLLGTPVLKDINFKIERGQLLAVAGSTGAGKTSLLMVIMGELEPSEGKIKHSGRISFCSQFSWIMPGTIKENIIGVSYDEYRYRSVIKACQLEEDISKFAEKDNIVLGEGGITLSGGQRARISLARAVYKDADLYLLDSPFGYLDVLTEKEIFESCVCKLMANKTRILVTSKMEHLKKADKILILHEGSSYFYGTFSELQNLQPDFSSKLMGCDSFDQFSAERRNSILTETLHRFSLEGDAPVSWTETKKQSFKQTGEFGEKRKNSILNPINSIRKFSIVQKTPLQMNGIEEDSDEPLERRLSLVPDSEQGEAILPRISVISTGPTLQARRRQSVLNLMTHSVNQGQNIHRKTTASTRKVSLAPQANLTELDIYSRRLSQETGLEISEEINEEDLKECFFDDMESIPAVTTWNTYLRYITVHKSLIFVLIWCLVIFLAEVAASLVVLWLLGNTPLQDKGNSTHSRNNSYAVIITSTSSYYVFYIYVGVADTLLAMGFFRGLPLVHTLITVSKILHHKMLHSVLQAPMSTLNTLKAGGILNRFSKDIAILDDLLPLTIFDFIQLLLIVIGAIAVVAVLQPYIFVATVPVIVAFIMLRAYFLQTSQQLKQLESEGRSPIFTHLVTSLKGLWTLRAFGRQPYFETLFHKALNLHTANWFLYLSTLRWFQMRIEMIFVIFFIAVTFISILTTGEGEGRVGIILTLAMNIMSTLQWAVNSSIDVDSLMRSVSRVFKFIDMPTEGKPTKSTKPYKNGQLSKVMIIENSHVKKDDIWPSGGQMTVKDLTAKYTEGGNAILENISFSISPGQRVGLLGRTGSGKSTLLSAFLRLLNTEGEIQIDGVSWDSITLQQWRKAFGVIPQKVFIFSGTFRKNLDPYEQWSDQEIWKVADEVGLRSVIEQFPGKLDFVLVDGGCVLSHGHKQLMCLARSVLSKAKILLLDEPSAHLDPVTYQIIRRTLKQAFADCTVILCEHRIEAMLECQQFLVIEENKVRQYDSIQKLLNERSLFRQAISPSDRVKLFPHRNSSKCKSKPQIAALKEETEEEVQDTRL

SMILES	EC50 [1]	EC50 [2]	Maximum % activity (with co-corrector) [3]	Emax [4]	EC50	EC50 (EC50 (without co-corrector), test compound without co-corrector)	Emax
COc1ccc(C2(C(F)(F)F)CC2)cc1CN[C@H]1[C@H](C(C)(C)C)[C@@H](C(=O)O)N(C(=O)OC(C)C)[C@H]1c1ccccc1 [Example I-141]	1 to 10 µM	< 1 µM	+++ (≥350)	> 200%			
COc1ncc(C(C)(C)C)cc1CN[C@H]1[C@H](C(C)(C)C)[C@@H](C(=O)O)N(C(=O)[C@@H]2CCCCO2)[C@H]1c1cccnc1N(C)C [Example I-142]	1 to 10 µM	1 to 10 µM	+++ (≥350)	> 200%			
COc1ccc(C(C)(C)C)cc1CN[C@H]1[C@H](C(C)(C)C)[C@@H](C(=O)O)N(C(=O)c2cnn3ccccc23)[C@H]1c1ccccc1 [Example I-143]	1 to 10 µM	1 to 10 µM	+++ (≥350)	< 100%			
CCc1c(C(=O)N2[C@H](C(=O)O)[C@@H](C(C)(C)C)[C@H](NCc3cc(C(C)(C)C)ccc3OC)[C@@H]2c2ccccc2)cnn1-c1ccc(OC)nn1 [Example I-144]	1 to 10 µM	1 to 10 µM	+++ (≥350)	100 to 200%			
COc1ccc(C(C)(C)C)cc1CN[C@H]1[C@H](C(C)(C)C)[C@@H](C(=O)O)N(C(=O)c2cnn(C(C)(C)C)c2C(C)C)[C@H]1c1ccccc1 [Example I-145]	1 to 10 µM	1 to 10 µM	+++ (≥350)	100 to 200%			
COc1ccc(C(C)(C)C)cc1CN[C@H]1[C@H](C(C)(C)C)[C@@H](C(=O)O)N(C(=O)c2c(C)nn(-c3ccccc3F)c2C)[C@H]1c1ccccc1 [Example I-146]	1 to 10 µM	< 1 µM	+++ (≥350)	> 200%			
COc1ccc(C(C)(C)C)cc1CN[C@H]1[C@H](C(C)(C)C)[C@@H](C(=O)O)N(C(=O)C2(C)CCc3cc(C)ccc32)[C@H]1c1ccccc1 (stereo partly drawn) [Example I-147]	1 to 10 µM	1 to 10 µM	+++ (≥350)	< 100%			
COc1ccc(C(C)(C)C)cc1CN[C@H]1[C@H](C(C)(C)C)[C@@H](C(=O)O)N(C(=O)CC2(O)CCC2)[C@H]1c1ccccc1 [Example I-148]	1 to 10 µM	1 to 10 µM	+++ (≥350)	> 200%			
COc1ccc(C(C)(C)C)cc1CN[C@H]1[C@H](C(C)(C)C)[C@@H](C(=O)O)N(C(=O)C2CCCCC2C(=O)N2CCC2)[C@H]1c1ccccc1 (stereo partly drawn) [Example I-149]	1 to 10 µM	1 to 10 µM	+++ (≥350)	> 200%			
COc1ccc(C(C)(C)C)cc1CN[C@H]1[C@H](C(C)(C)C)[C@@H](C(=O)O)N(C(=O)Oc2ccccc2)[C@H]1c1ccccc1 [Example I-153]			+++ (≥350)		< 1 µM	1 to 10 µM	> 200%
COc1ccc(C(C)(C)C)cc1CN[C@H]1[C@H](C(C)(C)C)[C@@H](C(=O)O)N(C(=O)OCc2ccccc2Cl)[C@H]1c1ccccc1 [Example I-154]	< 1 µM	< 1 µM	+++ (≥350)	100 to 200%			
COc1ccc(C2(C#N)CCC2)cc1CN[C@H]1[C@H](C(C)(C)C)[C@@H](C(=O)O)N(C(=O)C2CCCCC2)[C@H]1c1ccccc1 [Example I-155]	1 to 10 µM	1 to 10 µM	+++ (≥350)	100 to 200%			
COc1ccc(C(C)(C)C)cc1CN[C@H]1[C@H](C(C)(C)C)[C@@H](C(=O)O)N(C(=O)C(OC)C2CCCCC2)[C@H]1c1ccccc1 (stereo partly drawn) [Example I-160]	< 1 µM	< 1 µM	+++ (≥350)	> 200%			
COc1ccc(C(F)(F)F)cc1CN[C@H]1[C@H](C(C)(C)C)[C@@H](C(=O)O)N(C(=O)C2C3CCCC32)[C@H]1c1ccccc1 (stereo partly drawn) [Example I-161]	1 to 10 µM	1 to 10 µM	+++ (≥350)	> 200%			
COc1ccc(C(F)(F)F)cc1CN[C@H]1[C@H](C(C)(C)C)[C@@H](C(=O)O)N(C(=O)C2CC3CC3C2)[C@H]1c1ccccc1 (stereo partly drawn) [Example I-162]	1 to 10 µM	1 to 10 µM	+++ (≥350)	100 to 200%			
COc1ccc(C(F)(F)F)cc1CN[C@H]1[C@H](C(C)(C)C)[C@@H](C(=O)O)N(C(=O)C2CCC(C(F)(F)F)C2)[C@H]1c1ccccc1 (stereo partly drawn) [Example I-163]	1 to 10 µM	1 to 10 µM	+++ (≥350)	100 to 200%			
COc1ccc(C(F)(F)F)cc1CN[C@H]1[C@H](C(C)(C)C)[C@@H](C(=O)O)N(C(=O)C2CCC(C)(C)O2)[C@H]1c1ccccc1 (stereo partly drawn) [Example I-164]	1 to 10 µM	1 to 10 µM	+++ (≥350)	> 200%			
COc1ccc(C(C)(C)C)cc1CN[C@H]1[C@H](C(C)(C)C)[C@@H](C(=O)O)N(C(=O)[C@H]2COc3ccccc3O2)[C@H]1c1ccccc1 [Example I-167]	1 to 10 µM	< 1 µM	+++ (≥350)	> 200%			
COc1cnc(C2CCC2)cc1CN[C@H]1[C@H](C(C)(C)C)[C@@H](C(=O)O)N(C(=O)C2CCCCC2)[C@H]1c1ccccc1 [Example I-168]	1 to 10 µM	1 to 10 µM	+++ (≥350)	< 100%			
COc1ccc(C2(C(F)(F)F)CC2)nc1CN[C@H]1[C@H](C(C)(C)C)[C@@H](C(=O)O)N(C(=O)C2CCCCC2)[C@H]1c1ccccc1 [Example I-170]	1 to 10 µM	1 to 10 µM	+++ (≥350)	< 100%			
COc1ccc([Si](C)(C)C)cc1CN[C@H]1[C@H](C(C)(C)C)[C@@H](C(=O)O)N(C(=O)C2CCCCC2)[C@H]1c1ccccc1 [Example I-171]	< 1 µM	< 1 µM					
COc1ccc(C(C)(C)C)cc1CN[C@H]1[C@H](C(C)(C)C)[C@@H](C(=O)O)N(C(=O)C2CC3CCC(C2)O3)[C@H]1c1ccccc1 (stereo partly drawn) [Example I-172]	1 to 10 µM	1 to 10 µM	+++ (≥350)	> 200%			
COc1ccc(C(C)(C)C)cc1CN[C@@H]1[C@@H](C(C)(C)C)[C@H](C(=O)O)N(C(=O)C2CCCCC2)[C@H]1c1ccccc1 [Example I-173]	1 to 10 µM	1 to 10 µM	++ (≥150 and <350)	< 100%			
COc1ccc(C(F)(F)F)cc1CN[C@H]1[C@H](C(C)(C)OC)[C@@H](C(=O)O)N(C(=O)OC(C)C)[C@H]1c1ccccc1 [Example I-174]	1 to 10 µM	1 to 10 µM	+++ (≥350)	> 200%			
COc1ccc(C2(C(F)(F)F)CC2)cc1CN[C@H]1[C@H](C(C)(C)C)[C@@H](C(=O)O)N(C(=O)[C@@H]2CCCCO2)[C@H]1c1cccnc1N(C)C [Example I-176]	1 to 10 µM	1 to 10 µM	+++ (≥350)	> 200%			
COc1nc(C(C)(C)C)ccc1CN[C@H]1[C@H](C(C)(C)C)[C@@H](C(=O)O)N(C(=O)C2CCCCO2)[C@H]1c1ccccc1C(C)C (stereo partly drawn) [Example I-177]	< 1 µM	< 1 µM	+++ (≥350)	> 200%			
COc1nc(C(C)(C)C)ccc1CN[C@H]1[C@H](C(C)(C)C)[C@@H](C(=O)O)N(C(=O)C2CCCC(F)(F)C2)[C@H]1c1ccccc1 (stereo partly drawn) [Example I-180]	1 to 10 µM	1 to 10 µM	+++ (≥350)	> 200%			
COc1nc(C(C)(C)C)ccc1CN[C@H]1[C@H](C(C)(C)C)[C@@H](C(=O)O)N(C(=O)[C@H](C)c2ccccc2)[C@H]1c1ccccc1 [Example I-182]	1 to 10 µM	1 to 10 µM	+++ (≥350)	100 to 200%			
COc1ncc(C(F)(F)F)cc1CN[C@H]1[C@H](C(C)(C)C)[C@@H](C(=O)O)N(C(=O)C2CCCC(F)(F)C2)[C@H]1c1ccccc1 (stereo partly drawn) [Example I-183]	1 to 10 µM	< 1 µM	+++ (≥350)	100 to 200%			
